From US5612453A, “Selected peptides of the group-specific antigen (gag) of human immunodeficiency virus (HIV), the preparation and use thereof” (Chiron Behring GmbH & Co., priority 1990, dated 1997)

Columns and labels:
Assay type in all cases: cell-based
[1] = system: HIV-1 virus strain HTLV-IIIB; experiment: p24 detection by Western blot in HIV-infected cells after gag peptide treatment; conditions: two weeks after infection, Western blot with anti-p24 MAbs
Protocol: (§1) Cells. Permanently growing T lymphocytes (Jurkat or H9 cells) were used for the in vitro experiments. The medium used was conventional RPMI 1640 with 10% FCS, 2% NaHCO3 (5% strength), 1% penicillin/streptavidin solution and 2 mg/l Polybrene. The experiments were carried out either in 96-well microtiter plates (Nunc) or in 24-well plates (Nunc).
(§2) Viruses. HIV-1 virus strain HTLV-IIIB and HIV-2 strain ROD were used.
In the first experiment, 50 μl of 1×10^6 jurkat cells/ml were pipetted into each well of 96-well plates, and each was infected with 50 μl (1000 TCID50) HTLV-IIIB. The gag peptide concentration was adjusted to 200 μg/ml or 40 μg/ml. After one week, 100 μl of supernatant were removed and any cells still present were removed by centrifugation. Then 80 μl of supernatant were placed on an uninfected jurkat cell culture. Viral antigen was detected in the infected cells by immunolabeling after a Western blot. For this, the cells remaining after the inhibition experiment were taken up in 2×SDS-PAGE sample buffer and fractionated in a 14% PAG. The fractionated proteins were then blotted onto a nitrocellulose membrane and incubated with an anti-p24 HIV-1 monoclonal antibody to detect viral proteins. […] Infectious HIV in the supernatant of the peptide-treated cells was analyzed by the reverse transcriptase assay. […]

[2] = system: HIV-1 virus strain HTLV-IIIB; experiment: Inhibition of HIV-1 synthesis: infectious virus / reverse transcriptase activity in detector cell culture supernatant; conditions: for inhibitory effect on HIV-1 synthesis (reverse transcriptase activity of detector culture supernatant): Experiment 3 (FIG. 3), 100 TCID50 HIV-1, jurkat cells, detector cultures incubated two weeks; for inhibitory effect on HIV-1 synthesis: Experiments 1 and 2, jurkat cells, 1000 or 100 TCID50 HTLV-IIIB, peptide 200 or 40 μg/ml
Protocol: These peptides were added in various concentrations (200-40 μg/ml) to freshly infected jurkat cells. Infection was carried out with 100-1000 TCID50. The infection was analyzed by microscopic assessment and investigation of the supernatant for the content of infectious HIV. For this purpose, the cell supernatant was added to non-infected jurkat cells. After incubation for two weeks, this detector cell culture was examined for HIV under the microscope and by reverse transcriptase assay.
Permanently growing T lymphocytes (Jurkat or H9 cells) were used for the in vitro experiments. The medium used was conventional RPMI 1640 with 10% FCS, 2% NaHCO3 (5% strength), 1% penicillin/streptavidin solution and 2 mg/l Polybrene. The experiments were carried out either in 96-well microtiter plates (Nunc) or in 24-well plates (Nunc).
HIV-1 virus strain HTLV-IIIB and HIV-2 strain ROD were used.
(§3) Reverse transcriptase assay. The microassay for detecting viral reverse transcriptase was carried out by the method of Gregersen et al. (Gregersen et al. (1988) Detection of human immunodeficiency virus and other retroviruses in cell culture supernatants by a reverse transcriptase microassay. J. Virol. Methods 19, 161-168). Cell culture supernatants were concentrated five-fold by PEG precipitation. Positive controls (VC) were supernatants of untreated infected cell cultures, and negative controls (NC) were cell culture supernatants from uninfected cells. The value measured for the NC was doubled and used as value for excluding negative cells.
In the first experiment, 50 μl of 1×10^6 jurkat cells/ml were pipetted into each well of 96-well plates, and each was infected with 50 μl (1000 TCID50) HTLV-IIIB. The gag peptide concentration was adjusted to 200 μg/ml or 40 μg/ml. After one week, 100 μl of supernatant were removed and any cells still present were removed by centrifugation. Then 80 μl of supernatant were placed on an uninfected jurkat cell culture. […] Infectious HIV in the supernatant of the peptide-treated cells was analyzed by the reverse transcriptase assay.
1000 TCID50 HIV-1 were employed for infecting the jurkat cells. Reverse transcriptase activity measured in cpm in the cell culture supernatant from the detector cell culture. The supernatant was concentrated five-fold by PEG precipitation. VC=virus control; NC=negative control. Twice the NC value was used to exclude negative cell cultures. To improve clarity, the RT values are reported in the figure in logarithmic presentation.
100 TCID50 HIV-1 were employed to infect the jurkat cells. Reverse transcriptase activity measured in cpm in the cell culture supernatant from the detector cell culture. The supernatant was concentrated five-fold by PEG precipitation. VC=virus control; NC=negative control.

HIV-2 strain ROD = experiment: Inhibition of HIV-2 synthesis: reverse transcriptase activity in detector cell culture supernatant (Experiment 3); conditions: Experiment 3 (FIG. 3); 100 TCID50 HIV-2, H9 cells
Protocol: as §1, §2, §3
H9 cells were infected with 100 TCID50 HIV-2 for this experiment. […]
100 TCID50 HIV-1 and HIV-2 were employed to infect the jurkat and H9 cells respectively. Reverse transcriptase activity measured in cpm in the cell culture supernatant from the detector cell culture. […]

Row | Sequence | p24 Detection [1] | inhibitory effect on HIV-1 synthesis (reverse transcriptase activity of detector culture supernatant) [2] | inhibitory effect on HIV-1 synthesis [2] | inhibition of HIV-2 synthesis (reverse transcriptase activity of detector culture supernatant) (HIV-2 strain ROD)
1 | NPGLLETSEGCROILGQLQPSLQT [Peptide 5] | (+) | strong inhibitory effect | exerted an inhibitory effect on HIV-1 synthesis | very clearly evident
2 | WASRELERFAVNPGLLETSEGCRQ [Peptide 4, synthetic gag peptide from the p17 submembrane protein] | - | strong inhibitory effect | exerted an inhibitory effect on HIV-1 synthesis | very clearly evident
